Source: paper PMC8597055, “Exploration of Pyrazolo[1,5‐a]pyrimidines as Membrane‐Bound Pyrophosphatase Inhibitors” (Chemmedchem, 2021)
pIC50: −log10 of the molar value. Several values for one entry are separate records, joined by “and”; a condition that tells them apart may be missing. Equal entries are not always repeated. Entries after “also recorded” stand apart in the source; their conditions may differ.

Biological target: Thermotoga maritima mPPase (TmPPase) (Thermotoga maritima, UniProt Q9S5X0)
Experiment: TmPPase inhibition assay (96-well)
Format: biochemical
Details: for IC50 [CI95%] / pIC50: TmPPase inhibition, NA = IC50 not assigned; for pIC50: read-out: IC50 [CI95%]
Text: We started from the previously identified 5‐arylisoxazole‐3‐carboxylate core present in 2–5 (Figure 1, highlighted in blue). Using KNIME,[30] we did a substructure search for commercial analogues in the ZINC12 database[31] […] Therefore, we manually picked compounds from a diverse collection provided by a single vendor (Ambinter, 174 matches for the substructure query). Out of the search results, we selected fifteen isoxazoles for testing in vitro. For all compounds in this manuscript, we tested activity using a 96‐well based assay that detects the inhibition of TmPPase.[22, 23, 24]
All commercially obtained compounds had purities >90 % as specified by the vendor. Synthesized compounds were >95 % pure as determined by LC–MS and characterized by HRMS. The inhibition assay was carried out with purified TmPPase as previously reported.[22, 23, 24] The best hits 17 a, 19 a, and 20 a, were validated using eight compound concentrations in triplicate. Further hit validation was done against the purified mPPase from P. falciparum (PfPPase‐VP1) expressed in baculovirus‐infected insect cells (expression, purification and further enzyme analysis will be described in more detail elsewhere). 4 μL of the purified PfPPase‐VP1 (2.0 mg/mL) was reactivated in 96 μL of reactivation buffer, i. e. 20 mM 2‐(N‐morpholino)ethanesulfonic acid (MES) pH 6.5, 3.5 % (v/v) glycerol, 2 mM dithiothreitol (DTT) and 12 mg/mL L‐α‐phosphatidylcholine from soybean. For each tube strip, 3 μL of the reactivated PfPPase‐VP1 was added into 12 μL of reaction buffer (200 mM Tris‐Cl pH 8.0, 8.0 mM MgCl2, 333 mM KCl, 67 mM NaCl) and 25 μL of inhibitor solution. The reaction mixtures were incubated at 50 °C for 5 min and the assay was started with the addition of 10 μL of 2 mM sodium pyrophosphate and further incubation at 50 °C for 45 min. The reaction termination and colour development were done as earlier described.[22, 23, 24]
6 IC50 plots from the TmPPase inhibition assay
The blue and black curves refer to compounds presented already in the main article and only shown in the Supporting Information, respectively. IC50, half maximal inhibitory concentration; CI95%, half maximal inhibitory concentration expressed as a 95% confidence interval (given in square brackets); […]
IC50 determinations were done using R 3.6.1[2] and the n-parameter logistic regression (nplr) package[3] version 0.1.7. In this package, the weighted nplr, given x (compound concentrations) and y values (activity) is calculated using Richard’s equation (eq 1) where B and T are the bottom and top asymptotes, respectively; b and xmid are the Hill slope and the x coordinate at inflexion point, respectively; and s is an asymmetric coefficient. The model parameters were simultaneously optimized using non-linear minimization, using a sum of squared errors.[4] The standard error of the model, defined as the squared error on the fitted values, is used to estimate a confidence interval at 95% on the predicted IC50 values.

Thermotoga maritima mPPase (TmPPase), sequence (Q9S5X0 whole entry): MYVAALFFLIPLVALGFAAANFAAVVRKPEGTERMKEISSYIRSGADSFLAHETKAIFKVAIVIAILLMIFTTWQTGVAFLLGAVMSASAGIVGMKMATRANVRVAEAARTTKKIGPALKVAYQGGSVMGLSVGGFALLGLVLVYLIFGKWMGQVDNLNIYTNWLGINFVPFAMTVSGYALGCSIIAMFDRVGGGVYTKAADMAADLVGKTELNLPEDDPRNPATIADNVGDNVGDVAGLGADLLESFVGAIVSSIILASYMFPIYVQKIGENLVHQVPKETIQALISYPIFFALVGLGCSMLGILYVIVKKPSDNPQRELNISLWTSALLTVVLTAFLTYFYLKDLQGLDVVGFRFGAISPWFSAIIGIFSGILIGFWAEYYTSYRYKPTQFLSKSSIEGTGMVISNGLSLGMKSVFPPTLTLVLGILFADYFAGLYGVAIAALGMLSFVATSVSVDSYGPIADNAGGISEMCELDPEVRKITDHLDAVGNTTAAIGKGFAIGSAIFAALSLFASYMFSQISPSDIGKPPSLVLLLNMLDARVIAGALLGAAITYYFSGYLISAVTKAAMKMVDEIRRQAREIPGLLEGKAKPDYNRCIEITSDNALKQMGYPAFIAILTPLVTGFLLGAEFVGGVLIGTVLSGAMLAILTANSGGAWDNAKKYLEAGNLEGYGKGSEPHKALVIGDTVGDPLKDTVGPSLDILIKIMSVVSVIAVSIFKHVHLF

SMILES	IC50 [CI95%]	pIC50	further results
CCOC(=O)c1cc(-c2cc(C)cc(C)c2)n2nc(Br)cc2n1 [15 a, Ethyl 2‐bromo‐7‐(3,5‐dimethylphenyl)pyrazolo[1,5‐a]pyrimidine‐5‐carboxylate]	weak activity	3.92	–
CCOC(=O)c1cc(C2CC2)n2nc(Br)cc2n1 [15 b, Ethyl 2‐bromo‐7‐cyclopropylpyrazolo[1,5‐a]pyrimidine‐5‐carboxylate]	only slightly effective	3.82	–
Cc1cc(C)cc(-c2cc(C(=O)O)nc3cc(Br)nn23)c1 [16 a, 2‐Bromo‐7‐(3,5‐dimethylphenyl)pyrazolo[1,5‐a]pyrimidine‐5‐carboxylic acid]	inactive	–	–
O=C(O)c1cc(C2CC2)n2nc(Br)cc2n1 [16 b, 2‐Bromo‐7‐cyclopropylpyrazolo[1,5‐a]pyrimidine‐5‐carboxylic acid]	completely unsuccessful	–	IC50 [CI95%] (listed as 16b): Inactive
O=C(Oc1ccccc1Br)c1cc(C2CC2)n2nc(Br)cc2n1 [17 b, 2‐Bromophenyl 2‐bromo‐7‐cyclopropylpyrazolo[1,5‐a]pyrimidine‐5‐carboxylate]	completely unsuccessful	–	IC50 [CI95%] (listed as 17b): Inactive
C=Cc1cc2nc(C(=O)OCC)cc(-c3cc(C)cc(C)c3)n2n1 [18 a, Ethyl 7‐(3,5‐dimethylphenyl)‐2‐vinylpyrazolo[1,5‐a]pyrimidine‐5‐carboxylate]	–	4.27	fold improvement in the inhibition compared to 2-bromo analogue 15 a (TmPPase, 18 a versus 15 a): 2.2 fold
C=Cc1cc2nc(C(=O)OCC)cc(C3CC3)n2n1 [18 b, Ethyl 7‐cyclopropyl‐2‐vinylpyrazolo[1,5‐a]pyrimidine‐5‐carboxylate]	Inactive	–	–
C=Cc1cc2nc(C(=O)O)cc(C3CC3)n2n1 [19 b, 7‐Cyclopropyl‐2‐vinylpyrazolo[1,5‐a]pyrimidine‐5‐carboxylic acid]	Inactive	–	–
C=Cc1cc2nc(C(=O)Oc3ccccc3Br)cc(C3CC3)n2n1 [20 b, 2‐Bromophenyl 7‐cyclopropyl‐2‐vinylpyrazolo[1,5‐a]pyrimidine‐5‐carboxylate]	Inactive	–	–
C=Cc1cc2nc(C(=O)NCCN)cc(-c3cc(C)cc(C)c3)n2n1 [21 a, N ‐(2‐Aminoethyl)‐7‐(3,5‐dimethylphenyl)‐2‐vinylpyrazolo[1,5‐a]pyrimidine‐5‐carboxamide]	–	4.14	fold higher inhibition than cyclopropyl-substituted analogue 21 b (TmPPase, 21 a versus 21 b): 3.6 fold
C=Cc1cc2nc(C(=O)NCCN)cc(C3CC3)n2n1 [21 b, N ‐(2‐Aminoethyl)‐7‐cyclopropyl‐2‐vinylpyrazolo[1,5‐a]pyrimidine‐5‐carboxamide]	–	3.59	–
CCOC(=O)c1cc(-c2ccc(OC)c(S(=O)(=O)N3CCCSc4ccccc43)c2)on1 [compound 6]	–	5.27	–
CCOC(=O)c1cc(-c2ccc(OC)c(S(=O)(=O)N3c4ccccc4CC3C)c2)on1 (stereo not drawn) [compound 7]	–	4.25	–
CCOC(=O)c1cc(-c2ccc(OC)c(S(=O)(=O)N3CC(C)CSc4ccccc43)c2)on1 (stereo not drawn) [compound 8]	Inactive; also recorded: not tolerated	–	–
CCOC(=O)c1cc(-c2ccc(OC)c(S(=O)(=O)N3CCSc4ccccc43)c2)on1 [compound 9]	Inactive; also recorded: loss of all TmPPase inhibitory activity	–	–
CCOC(=O)c1cc(-c2ccc(OC)c(S(=O)(=O)N3CC(C)Sc4ccccc43)c2)on1 (stereo not drawn) [compound 10]	Inactive; also recorded: loss of all TmPPase inhibitory activity	–	–
COc1ccccc1S(=O)(=O)Nc1ccc(N(C)C)cc1 [compound 11]	–	> 4.60 and 4.85	ligand efficiency (LE) (computed from pIC50 and heavy atom count): 0.23
